Assay results as given in patent publication US8338488B2, “Use of at least one oxime derivative of 3,5-seco-4-nor-cholestane as antioxidants” (Trophos, priority 2007, dated 2012).
One block for each molecule: values may come before it.

How the values were obtained:
[1] = Competition with DMPO for the tBuO radical, DMPO-tBuO adduct signal measured by EPR
Experimental: The nitrones trap the radical species (R.; RO.) and allow their observation by electron paramagnetic resonance (EPR) (Degray J. et al. Electron Spin Resonance, Ed N. M. Atherton, Atheaeum Press Ltd; Cambridge, 1994, 14, 246).
The incubation of the DMPO (Interchim-U2469) (20 mM) in deoxygenated toluene (Sigma-Aldrich) in the presence of the tBuO (tert-butoxyl) radical, generated by photolysis, makes it possible to identify and quantify by EPR the signal of the DMPO-tBuO radical. This signal is inhibited in the presence of an equimolar quantity of 3,5-seco-4-nor-cholestane oxime.
The EPR signal allows integration in the form of an area of the signal of the DMPO-tBuO adduct and therefore a relative quantification of this radical entity.
All the experiments were carried out on an X-band Bruker ESP300 device (9.5 GHz) at ambient temperature. The solutions were studied in a quartz EPR tube.

[2] = Oxidation of cumene to cumene hydroperoxide by oxygen with AIBN, assayed by HPLC-UV; details: for % of reduction of the oxidation of the cumene / Area of the signal, in relative units, of the cumene hydroperoxide: 2 equivalents of AIBN, 2 hours 45° C.
Experimental: The oxidation of cumene at atmospheric pressure and at 37° C. by oxygen is known and described in the presence of a radical initiator such as AIBN (azobisisobutyronitrile) (Blanchard H. S., J. Am. Chem. Soc. 1959, 81, 4548). A recent publication used this reaction to classify the antioxidant potential of known products such as vitamin E (which is the universal reference), BHT (butylated hydroxytoluene) and other products.
In the following experiment we reproduced the same experimental conditions as those described in the publication of Becker D. A. et al. (J. Am. Chem. Soc. 2002, 124, 4678-4684). A high pressure liquid chromatography method coupled with a UV detector was used to detect cumene hydroperoxide. The column used is an Agilent Zorbax Eclipse XDB RPC8 column (150×4.6 mm) coupled with a UV detector fixed at 254 nm. The gradient used is detailed in the following table: […]
2 ml of cumene (AcrosOrganic) and 0.5 ml of methanol are mixed, azobisisobutyronitrile (AcrosOrganic) is added (2 equivalents) and the solution taken to 45° C. in order to accelerate the chemical reaction. The cumene hydroperoxide appears over time and is assayed by the HPLC method.
The technique used made it possible to compare the appearance of the cumene hydroperoxide in the presence of an antioxidant agent such as the claimed products and vitamin E used as reference product.

[3] = Pharmacokinetics in the rat, oral and intravenous routes; type: in vivo; details: 500 mg/kg by oral route, suspension in corn oil, i.v. reference in cremophor/ethanol/water
Experimental: A study of pharmacokinetics with administration by oral route in suspension in corn oil and by intra-venous route in solution in cremophor/ethanol/water (5%, 10%, 85%) made it possible to calculate the bioavailability of the product. The assay of the product in the plasma is carried out by a high pressure liquid chromatography method coupled with mass spectrometry.

[4] = Chemical stability of the powder under ICH storage conditions, total impurities by GC-FID; type: physicochemical; details: for total impurities: powder
Experimental: These analyses were carried out using a gas chromatography method coupled with an FID detector. This method makes it possible to quantify the impurities at a level of 0.2%.

[5] = system: perfused isolated rat heart; test: Perfused isolated rat heart, ischaemia/reperfusion, DMPO spin trapping in the coronary effluents (EPR)
Experimental: The animals used are male rats of the Sprague Dawley strain (Harlan et CERJ, France) of 250-300 g) fed ad libitum. The rats are anaesthetized by an intraperitoneal injection of sodium pentobarbital (50 mg/kg of body weight). The thoracic cavity is then opened and the heart rapidly removed and immersed in perfusion liquid (Krebs-Henseleit) at 4° C. in order to stop any contraction.
The heart with fatty tissues removed is then perfused according to Langendorff's technique by aortic retrograde route at a constant pressure of 90 cm H2O. A small incision in the pulmonary artery allows the flow and measurement of the coronary effluent over time (coronary flow rate). The time required for completion of the entire operation is two to three minutes. After ablation of the left auricle, a latex cuff is inserted into the left ventricle and filled with a volume of distilled water (50-60 μl) which remains constant during the experimental protocol, connected to a pressure sensor (GOULD) and to a differentiating recorder allowing the measurement of the following haemodynamic parameters: • intraventricular diastolic pressure (Pdia) • developed pressure of left ventricle Pdev=Psystolic−Pdia • dP/dt (first derivative of the developed pressure, cardiac contractility index in this model) • cardiac frequency (F) • cardiac work calculated according to the relationship W=Pdev×F […]

- bioavailability [3]: 6%
- change in the quality of the product ([4]; after 1 year's storage at 25° C.): No change in the quality
- change in the quality of the product ([4]; after 6 months of storage at 40° C.): No change in the quality
- total impurities ([4]; 25° C. under 60% relative humidity, T0): 0.2%
- total impurities ([4]; 25° C. under 60% relative humidity, T12 months): 0.2%
- total impurities ([4]; 40° C. under 75% relative humidity, T0): 0.2%
- total impurities ([4]; 40° C. under 75% relative humidity, T6 months): 0.2%
Molecule: CC(C)CCC[C@@H](C)[C@H]1CC[C@H]2[C@@H]3CC/C(=N\O)[C@](C)(CCCO)[C@H]3CC[C@]12C [3,5-seco-4-nor-cholestan-5-one oxime-3-ol]
- % inhibition of the DMPO-tBuO radical ([1]; compound 20 mM + DMPO 20 mM, 200 s): 50%
- % inhibition of the DMPO-tBuO radical ([1]; compound 20 mM + DMPO 20 mM, 400 s): 66%
- Area of the DMPO-tBuO signal at 200 s in relative units ([1]; compound 20 mM + DMPO 20 mM, (t-BuO)2 20 mM, photolysis at 350 nm, 200 s): 3 relative units
- Area of the DMPO-tBuO signal at 400 s in relative units ([1]; compound 20 mM + DMPO 20 mM, (t-BuO)2 20 mM, photolysis at 350 nm, 400 s): 4 relative units
- effect on the DMPO-tBuO EPR signal ([1]; equimolar quantity to DMPO (20 mM), deoxygenated toluene): inhibited
- inhibition of the level of the DMPO-tBuO signal radical (conclusion) ([1]; equimolar with DMPO): ~60%
- kinetics of inhibition of the DMPO-tBuO signal (time) ([1]; rapid kinetics): less than 10 minutes
- reduction of the oxidation of the cumene by oxygen (conclusion) [2]: approximately 40%
- % of reduction of the oxidation of the cumene ([2]; 50 μM): 25%
- Area of the signal, in relative units, of the cumene hydroperoxide ([2]; 50 μM): 300 relative units
- % of reduction of the oxidation of the cumene ([2]; 200 μM): 50%
- Area of the signal, in relative units, of the cumene hydroperoxide ([2]; 200 μM): 200 relative units
- activity compared with vitamin E ([2]; same concentrations): same order of magnitude
- extracellular production of free radical scavenging adducts (DMPO-OH) in the coronary effluents ([5]; 1 μM in Krebs buffer, DMPO 50 mM, reperfusion after ischaemia, p<0.05): large and significant reduction
- protection with respect to the vehicle (DMPO-OH adducts, FIG. 1) ([5]; 1 μM, two groups of 6 hearts): significant protection

Molecule: vitamin E [reference compound]
- % of reduction of the oxidation of the cumene ([2]; 100 μM): 39%
- Area of the signal, in relative units, of the cumene hydroperoxide ([2]; 100 μM): 245 relative units
